Source: patent US8772235B2, “Compounds having peptides conjugated to bone targeting moieties and methods of making and using thereof” (The Governors of the University of Alberta, priority 2009, dated 2014)

Experiments:
[1] = Circular dichroism, secondary structure of sCT, sCT-SMCC and sCT-BP; assay type: physicochemical; details: 20 mM acetate buffer pH 5.0, 400 μg/mL sCT or equivalent
Protocol: For a more detailed analysis of the influence of BP coupling on secondary structural confirmation of sCT, the circular dichroism (CD) spectrum of sCT, sCT-SMCC and sCT-BP was measured in the 20 mM acetate buffer pH 5.0. CD spectra were obtained with a ConvCD spectrophotometer instrument. Spectra were acquired over a wavelength range of 190 to 260 nm. The N2 flow rate was set at 5 l/min. The sample cuvette was cleaned with 20 mM Sodium Acetate buffer pH 5, and the spectra of test samples, which comprised of 400 μg/mL of sCT or equivalent the same buffer, were recorded with the corresponding buffer serving as blanks.

[2] = Effect on plasma calcium level in normal rats (SMCC series); assay type: in vivo, rat; details: 20 IU sCT/kg equivalent, subcutaneous
Protocol: (§1) Pharmacodynamic response of sCT analogue was evaluated by analyzing plasma calcium concentration in the rat model. Sprague Dawley female rats weighing 230-260 g (about 6 weeks old) were purchased from Charles River, USA and housed at the University of Alberta Animal Holding Unit. All experimental protocols were approved by the Animals Ethics Committee of the University of Alberta. The rats were divided randomly into five groups of 3 animals each and the pharmacodynamic response was assessed following subcutaneous administration of the sCT or analogue equivalent to 20 IU sCT/kg body weight. Rats were anesthetized using Isoflurane inhalation anesthesia and the 200 μl blood samples were obtained in heparinized Eppendorf microtubes before drug injection. Then 100 μl of sCT or equivalent dose in 20 mM Sodium Acetate buffer pH 5 was sub cu injected and the blood samples were collected 1, 2, 3 and 4 hrs post injection from jugular vein. Blood plasma was obtained by centrifuging the samples at 5000 rpm for 10 min and collecting the supernatant. Plasma calcium level was assayed by QuantiChrom™ Calcium Assay Kit (BioAssay Systems, CA USA) and the plasma phosphate level was assayed by QuantiChrom™ Phosphate Assay Kit (BioAssay Systems, CA USA).

[3] = Effect on plasma phosphate level in normal rats (SMCC series); assay type: in vivo, rat; details: 20 IU sCT/kg equivalent, subcutaneous
Protocol: as §1

[4] = Bone mineral specificity: calcium carbonate binding assay; details: 1 h, 100 mM phosphate buffer pH 7
Protocol: (§2) Bone targeting potential of sCT analogue was evaluated by determining the effect of sCT modification (due to chemical coupling) upon its bone mineral affinity. Specific volume of purified sCT analogue solution containing 10 μg of sCT was mixed with 1 mg Hydroxyapatite (HA) in 150 μL 100 mM phosphate buffer (pH 7.0) in microcentrifuge tubes in duplicate to give a final concentration of 66.67 μg/ml sCT. As a reference, control samples were incubated in tubes without HA (i.e., 0% of binding).
(§3) The tubes were incubated at room temperature on a shaker for 1 h, and centrifuged at 5000 g for 5 minutes to separate the HA from the supernatant. sCT concentration in the supernatant was determined using the BCA microprotein assay (Pierce, USA) as described above. HA centrifugate remaining after removal of supernatant was washed five times using 1 mL buffer each time and the last washing after centrifugation at 5000 g for 5 minutes was collected. Both the washings and the HA centrifugate were then analyzed for sCT as described above. The amount of sCT in the supernatant, washings and HA centrifugate was then inferred by measuring the absorbance at 562 nm, with a value of 100% for control samples without HA.
(§4) Bone mineral specificity of sCT analogue was then determined in the above manner using HA, calcium carbonate, calcium pyrophosphate, tricalcium phosphate and calcium oxalate.

[5] = Bone mineral specificity: tri-calcium phosphate binding assay; details: 1 h, 100 mM phosphate buffer pH 7
Protocol: as §2, §3, §4

[6] = Circular dichroism, secondary structure of sCT, sCT-PEG and sCT-PEG-BP; assay type: physicochemical; details: 20 mM acetate buffer pH 5.0, ~400 μg/mL sCT or equivalent
Protocol: For a more detailed analysis of the influence of structural alteration of sCT on secondary structure of sCT analogue, the circular dichroism (CD) spectrum of sCT, sCT-PEG and sCT-PEG-BP was measured in the 20 mM acetate buffer pH 5.0. CD spectra were obtained with a ConvCD spectrophotometer instrument. Spectra were acquired over a wavelength range of 190 to 260 nm. The N2 flow rate was set at 5 l/min. The sample cuvette (100 μL) was cleaned with 20 mM Sodium Acetate buffer pH 5, and the spectra of test samples, which comprised of ˜400 μg/mL of sCT or equivalent the same buffer, were recorded with the corresponding buffer serving as blanks.

[7] = test system: RAW 264.7 cells; experiment: MTT cytotoxicity on osteoclast precursor RAW 264.7 cells (PEG series); assay type: cell-based, mouse; details: 100, 500 and 1000 nM sCT or equivalent, 4 hours incubation
Protocol: RAW 264.7 cells (ATCC VA, USA) were seeded on 96 well plates at an initial density of 2×10^4 cells/well and incubated in 200 μl GIBCO High Glucose 1× Dulbecco's Modified Eagle Medium (DMEM) (Invitrogen CA, USA) supplemented with 4.5 g/L D-Glucose, L-Glutamine, 110 mg/L Sodium Pyruvate, 10% heat inactivated fetal bovine serum (FBS) and 1% Penicillin-Streptomycin (10000 U/mL; Invitrogen) in a Thermo Fisher Scientific Water Jacketed CO2 incubator (37° C., 5% CO2) until the cells were 80% confluent.
After 72 hrs, media was replaced by 200 μl basic DMEM media without FBS and incubated for 30 minutes. […] After removing the supernatant and washing twice with phosphate buffer saline, purple formazan crystals formed were dissolved in 200 μl solubilization solution (in vitro toxicology assay kit, # TOX-1, Sigma Aldrich, St. Louis, USA) and the absorbance was measured at 570 nm using microplate reader. Experiment was performed for n=8 and the absorbance of wells containing cells without sCT treatment was considered as 100% viable and used to calculate the relative viability of sCT treated cells.
In all in vitro and in vivo bioactivity assay the maximum concentration used was equivalent to 100 nM sCT. However, cytoxicity was determined for the concentration up to 1000 nM sCT or equivalent. […]

[8] = first hour, vs acetate buffer controls

Substance: Salmon calcitonin [sCT, reference compound]
- secondary structure by CD spectrum [1]: random coil conformation
- percentage of plasma calcium reduction ([2]; 4 hour post dosing): 32.03±2.11%
- percentage of plasma calcium reduction [2, 8]: 20.33±5.5%
- percentage of plasma calcium reduction ([2]; second hour): 28.98±4.65%
- percentage of plasma calcium reduction ([2]; third hour): 29.85±4.11%
- percentage of plasma phosphate reduction ([3]; 4 hour post dosing): 14.69±3.71%
- percentage of plasma phosphate reduction [3, 8]: 11.91±6.24%
- percentage of plasma phosphate reduction ([3]; second hour): 11.64±13.01%
- sCT concentration in supernatant after incubation with Calcium carbonate [4]: did not significantly reduce the sCT concentration in the supernatant
- sCT bound to Tri-Calcium Phosphate [5]: no significant difference in the affinity
- secondary structure by CD spectrum [6]: random coil conformation
- cytotoxicity (absorbance of formazan solution) compared to untreated media [7]: low levels of cytotoxicity
